Test results from PubChem BioAssay (NCI).
Several values for one entry are separate records, joined by “and”; a condition that tells them apart may be missing. Equal entries are not always repeated.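 In this assay, cells in 96-well plates receive the compound at five concentrations for 48 hours. Endpoints are linearly interpolated between the surrounding concentrations. The concentration for 50% growth inhibition is given as GI50. TGI denotes the concentration required for complete inhibition of growth.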

Tests used:
Assay in all cases: inhibition of tumour cell growth, NCI panel, 48 h
SK-MEL-28 melanoma = test system: SK-MEL-28 melanoma
SK-MEL-2 melanoma = test system: SK-MEL-2 melanoma
SF-539 CNS = test system: SF-539 CNS
HS 578T breast = test system: HS 578T breast
NCI-H460 lung = test system: NCI-H460 lung
MDA-MB-231 breast = test system: MDA-MB-231 breast
ACHN renal = test system: ACHN renal
MCF7 breast = test system: MCF7 breast
SNB-19 CNS = test system: SNB-19 CNS
UACC-257 melanoma = test system: UACC-257 melanoma

Structure (SMILES) | TGI (SK-MEL-28 melanoma) | TGI (SK-MEL-2 melanoma) | TGI (SF-539 CNS) | TGI (HS 578T breast) | TGI (NCI-H460 lung) | TGI (MDA-MB-231 breast) | TGI (ACHN renal) | TGI (MCF7 breast) | TGI (SNB-19 CNS) | TGI (UACC-257 melanoma) | GI50 (MCF7 breast)
COc1ccc(C2SCC(=O)N2NC(=O)c2ccc(NC(C)=O)cc2)c(OC)c1 (stereo unspecified) | > 100 µM | > 100 µM | > 100 µM | > 100 µM | > 100 µM | > 100 µM | > 100 µM | > 100 µM | > 100 µM | > 100 µM | –
CC(C)NC(=O)N(Nc1ccccc1)C(C)(C)C | > 100 µM | > 100 µM | > 100 µM | > 100 µM | > 100 µM | > 100 µM | > 100 µM | > 100 µM | > 100 µM | > 100 µM | –
CN(C)C(c1ccccc1)C1COC2Cc3ccccc3C1O2 (stereo unspecified) | > 100 µM | > 100 µM | > 100 µM | > 100 µM | > 100 µM | > 100 µM | > 100 µM | > 100 µM | > 100 µM | > 100 µM | 84 µM and 23.6 µM
CS(=O)(=O)c1ccc(N=C/C=C/Nc2ccc(S(C)(=O)=O)cc2)cc1 | > 100 µM | > 100 µM | > 100 µM | > 100 µM | > 100 µM | > 100 µM | > 100 µM | > 100 µM | > 100 µM | > 100 µM | –
COC(=O)C(Cc1c[nH]c2ccccc12)NC(=O)c1ccc(-c2ccc(Cl)cc2Cl)o1 (stereo unspecified) | > 100 µM | > 100 µM | 91 µM | > 100 µM | > 100 µM | > 100 µM | > 100 µM | > 100 µM | > 100 µM | 99.3 µM | –
CC(C)=CCC/C(C)=C/CC/C(C)=C/CC/C(C)=C/CC/C(C)=C/CC/C(C)=C/CC/C(C)=C/CC/C(C)=C/CC/C(C)=C/CO | > 100 µM | > 100 µM | > 100 µM | > 100 µM | > 100 µM | > 100 µM | > 100 µM | > 100 µM | > 100 µM | > 100 µM | –
CN(C)CCNC(=O)c1cccc(N(C)C(=O)c2ccccc2)c1[N+](=O)[O-] | > 100 µM | > 100 µM | > 100 µM | > 100 µM | > 100 µM | > 100 µM | > 100 µM | > 100 µM | > 100 µM | > 10 µM | –
CC1(C)Cc2nc3c(cc2C(=O)C1C=N/C(C#N)=C(\N)C#N)C(=O)C(C=N/C(C#N)=C(\N)C#N)C(C)(C)C3 (stereo unspecified) | 4.58 µM | 4.69 µM | 2.41 µM | 3.32 µM | 8.21 µM | 22.1 µM | 5.87 µM | 6.23 µM | 21.5 µM | 6.73 µM | –
CC(=O)Nc1c(C)cc2c(nc3n2CCC3OC(C)=O)c1[N+](=O)[O-] (stereo unspecified) | > 100 µM | > 100 µM | > 100 µM | > 100 µM | > 100 µM | > 100 µM | > 100 µM | > 100 µM | > 100 µM | > 100 µM | –
C/C(CC(O)(/C=N/O)c1ccccc1)=N/O (stereo unspecified) | > 100 µM | > 100 µM | > 100 µM | > 100 µM | > 100 µM | > 100 µM | > 100 µM | > 100 µM | > 100 µM | > 100 µM | –
CC1SCc2nc3ccccc3n21 (stereo unspecified) | > 100 µM | > 100 µM | > 100 µM | > 100 µM | > 100 µM | > 100 µM | > 100 µM | > 100 µM | > 100 µM | > 100 µM | –
CCOC(=O)C1=CCOc2cc(N(C)C)ccc21 | > 100 µM | > 100 µM | > 100 µM | > 100 µM | > 100 µM | > 100 µM | > 100 µM | > 100 µM | > 100 µM | > 100 µM | –
O=C1C2=C(CC3=C(C2)CS(=O)(=O)C3)C(=O)C2=C1CC1=C(C2)CS(=O)(=O)C1 | > 70 µM | > 75.2 µM | > 75.2 µM | > 60.6 µM | > 100 µM | 27.3 µM | > 66.2 µM | 35.1 µM | 35.5 µM | > 61.2 µM | –
O=c1[nH]nc(-c2ccccc2)n1/N=C/c1cccs1 | > 100 µM | > 100 µM | > 100 µM | > 100 µM | > 100 µM | > 100 µM | > 100 µM | > 100 µM | > 100 µM | > 100 µM | –
COc1ccccc1C1ON=C(c2ccc([N+](=O)[O-])cc2)N1C12CC3CC(CC(C3)C1)C2 (stereo unspecified) | > 100 µM | > 100 µM | > 100 µM | > 100 µM | > 100 µM | > 100 µM | > 100 µM | > 100 µM | > 100 µM | > 100 µM | –
[N-]=[N+]=NC(c1cn(C2CC(O)C(CO)O2)c(=O)[nH]c1=O)C(Cl)I (stereo unspecified) | > 100 µM | > 100 µM | > 100 µM | > 100 µM | > 100 µM | > 100 µM | > 100 µM | > 100 µM | > 100 µM | > 100 µM | –
